Patent publication US12331048B2, “Pyrido-[3,4-d]pyridazine amine derivatives useful as NLRP3 inhibitors” (Ventus Therapeutics U.S., Inc., priority 2022, dated 2025)
Where two headings read alike, the source gives them in different places.

Key:
NLRP3 = target: T1, NLRP3 (Homo sapiens, UniProt Q96P20); experiment: Human whole blood (hWB) NLRP3 assay; format: cell-based; settings: LPS priming 1 μg/ml, ATP activation, read-out: hWB IC50 (raw activity data)
T1 construct: endogenous in cells
Protocol: Heparin lithium coated tubes were used to collect blood from volunteers. Blood samples were distributed on 96 well plates using 90 μl per well. Priming was performed by adding 5 μl of LPS (O26:B6; Sigma L-2654) at a final concentration of 1 μg/ml for 4.5 hours in a humidified incubator with 37° C., 5% CO2. Thirty minutes prior to NLRP3 activation, 5 μl of a 20× compound solution or vehicle (2% DMSO) was added to each well and plates were incubated on a shaker (450 rpm) in a humidified incubator with 37° C., 5% CO2. Activation was then performed by adding 3.3 μl of a 31×ATP solution per well. At the end of the 30 minutes stimulation, the plates were centrifuged (800 g, 10 min. room temperature) and the plasma from each well was frozen at −80° C. […] levels in the supernatant were analyzed using a mesoscale discovery assay (MSD K151TUK) according to the manufacturers' instructions. Human whole blood was drawn from healthy volunteers after obtaining written informed consent.
Table D assigns each compound a code for potency in the human whole blood (hWB) NLRP3 Assay: A or B. According to the code. […] The corresponding raw activity data is also included.

[1] = Brain levels (kp and kpu,u) after oral administration; format: in vivo, CDI mice; settings: mice, 20 mpk PO; for Kp at 24 h / Kpu,u (unbound brain-to-plasma ratio): CDI, mouse, brain / plasma, po, 20 mg/kg; for Kp at 24 h: whole brain AUC over 24 h divided by plasma AUC; for Kpu,u (unbound brain-to-plasma ratio) / kpu,u (code): kp corrected with mouse plasma protein binding and mouse brain homogenate binding
Protocol: The in vivo total brain to plasma ratio was assessed in CDI mice after oral administration of the compound. Blood was collected at several timepoints up to 24 h, and transferred into plastic micro centrifuge tubes with EDTA-K2 as anticoagulant. Blood samples were centrifuged at 4000 g for 5 minutes at 4° C. to obtain plasma, then immediately frozen and stored at −75±15° C. prior to analysis. Animals were terminally anaesthetized with a rising concentration of CO2 gas at about 1 minute. At selected timepoints, whole brains were removed from the skull, rinsed in cold PBS to remove blood, dried with clean gauze, then frozen in liquid nitrogen and kept at −75±15° C. before analysis. At the time of analysis, brain samples were homogenized with PBS by tissue weight (g) to PBS volume (mL) ratio 1:3. Plasma and brain drug levels were quantified by LC/MS/MS on a AB Sciex Triple Quad 5500+ instrument, after separation on a HALO 160A ES-C18, 2.7 μm 2.1-50 mm column. Quantitation was performed using a calibration curve prepared in blank plasma or blank brain homogenate. The software WinNonlin (Phoenix™) was used for pharmacokinetic analysis from the concentrations versus time data, including the AUCinf and AUClast. The Kp ratio (total brain concentration over total plasma concentration) was calculated as (AUCtot,br)/(AUCtot,pl).
The unbound brain exposure was assessed as Kpuu, which is the free brain/free plasma concentration ratio (Cu,br/Cu,pl). The Cu,br/Cu,pl ratios were obtained from in vivo total brain to plasma ratios (Ctot,br/Ctot,pl) by using in vitro determined Fu,br and Fu,pl.
Plasma protein binding and brain homogenate protein binding were measured by equilibrium dialysis in a HTDialysis plate. The dialysis membranes were soaked in ultrapure water for 60 minutes to separate strips, then in 20% ethanol for 20 minutes, finally in dialysis buffer for 20 minutes. The dialysis set up was assembled according to the manufacturer's instruction. Each cell received 150 μL of plasma or brain homogenate spiked with 1 mM of compound, and dialyzed against an equal volume of dialysis buffer (PBS). The dialysis plate was sealed and incubated in an incubator at 37° C. with 5% CO2 at 100 rpm for 6 hours. At the end of incubation, compound concentration was measured in both chambers by LC-MS/MS on a Triple Quad™ 5500 from AB Inc after separation on a XSelect Hss T3 2.5μ (2.1×30 mm) column. Free fraction (Fu) was calculated as (Peak Area Ratio buffer chamber/Peak Area Ratio plasma chamber).
Kpuu was calculated as (AUCtot,br×Fu,br)/(AUCtot,pl×Fu,pl).
The below table also assigns each compound a code for kp and kpu,u values: A or B. According to the code. A represents a value of >0.3 and B represents a value of ≤0.3. […] The kpu,u was then calculated upon correcting this kp value with mouse plasma protein binding and mouse brain homogenates binding. A Kpu,u value >0.3 is brain penetrant, and Kpu,u value less than or equal to 0.3 is not brain penetrant. N.D.=not determined. The corresponding raw kp and kpu,u data is also included.

T1 sequence (Q96P20 whole entry): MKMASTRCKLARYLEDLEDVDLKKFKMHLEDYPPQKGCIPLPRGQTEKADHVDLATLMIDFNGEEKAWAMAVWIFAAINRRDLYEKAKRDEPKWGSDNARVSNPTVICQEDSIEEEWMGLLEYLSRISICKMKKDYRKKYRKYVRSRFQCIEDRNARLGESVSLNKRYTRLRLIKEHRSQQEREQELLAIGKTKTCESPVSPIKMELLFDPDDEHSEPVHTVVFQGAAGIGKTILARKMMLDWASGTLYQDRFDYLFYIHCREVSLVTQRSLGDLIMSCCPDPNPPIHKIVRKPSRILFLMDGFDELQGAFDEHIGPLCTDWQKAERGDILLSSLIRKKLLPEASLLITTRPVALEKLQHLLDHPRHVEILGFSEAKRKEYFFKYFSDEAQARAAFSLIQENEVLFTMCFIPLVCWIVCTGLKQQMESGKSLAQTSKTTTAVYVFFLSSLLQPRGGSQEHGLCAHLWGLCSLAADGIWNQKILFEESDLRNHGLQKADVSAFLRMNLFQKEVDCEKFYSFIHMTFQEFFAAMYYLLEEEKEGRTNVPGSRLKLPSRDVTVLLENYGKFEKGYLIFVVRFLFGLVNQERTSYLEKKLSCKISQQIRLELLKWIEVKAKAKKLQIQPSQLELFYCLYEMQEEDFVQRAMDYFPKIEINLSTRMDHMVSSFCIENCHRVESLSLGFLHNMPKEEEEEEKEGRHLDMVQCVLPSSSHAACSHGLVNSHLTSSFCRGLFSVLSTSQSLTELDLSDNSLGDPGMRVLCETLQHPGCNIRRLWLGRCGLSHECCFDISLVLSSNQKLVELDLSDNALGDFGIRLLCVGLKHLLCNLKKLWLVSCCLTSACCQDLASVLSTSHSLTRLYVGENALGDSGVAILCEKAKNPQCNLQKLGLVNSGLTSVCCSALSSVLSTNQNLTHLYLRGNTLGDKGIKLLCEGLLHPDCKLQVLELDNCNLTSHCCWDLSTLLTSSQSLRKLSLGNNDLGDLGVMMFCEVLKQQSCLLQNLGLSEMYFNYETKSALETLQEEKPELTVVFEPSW

Row | Structure (SMILES) | IC50 (NLRP3) | Kp at 24 h ([1]; read-out: kp (code)) | Kp at 24 h ([1]; read-out: kp (raw)) | Kpu,u (unbound brain-to-plasma ratio) [1] | kpu,u (code) [1]
1 | CC1(C)COC[C@@H]1Nc1nnc(-c2ccc(Cl)cc2O)c2ccncc12 (single isomer, unassigned) [Compound 1*] | 1000 nM | > 0.3 | 0.9 | 0.31 | A (A represents a value of >0.3)
2 | CC1(C)COCC[C@@H]1Nc1nnc(-c2ccc(Cl)cc2O)c2ccncc12 (single isomer, unassigned) [Compound 3*] | 190 nM | > 0.3 | 0.58 | 2.2 | A (A represents a value of >0.3)
3 | CC1(C)C[C@@H](Nc2nnc(-c3ccc(Cl)cc3O)c3ccncc23)CCO1 (single isomer, unassigned) [Compound 4*] | 660 nM | > 0.3 | 0.81 | 0.89 | A (A represents a value of >0.3)
4 | CN1CCO[C@@H](CNc2nnc(-c3ccc(C(F)(F)F)cc3O)c3ccncc23)C1 (single isomer, unassigned) [Compound 6*] | 430 nM | > 0.3 | 0.66 | 2.3 | A (A represents a value of >0.3)
5 | Oc1cc(Cl)ccc1-c1nnc(N[C@H]2CCOC2)c2cnccc12 (single isomer, unassigned) [Compound 7*, reference compound] | 800 nM | ≤ 0.3 | 0.13 | 0.15 | B (B represents a value of ≤0.3)
6 | Cc1ccc(-c2nnc(N[C@H]3CCC(C)(C)OC3)c3cnccc23)c(O)c1 (single isomer, unassigned) [Compound 10*] | 1400 nM | > 0.3 | 0.35 | 0.51 | A (A represents a value of >0.3)
7 | CC1(C)C[C@@H](Nc2nnc(-c3ccc(C(F)(F)F)cc3O)c3ccncc23)CCO1 (single isomer, unassigned) [Compound 11*] | 1400 nM | > 0.3 | 0.96 | 1.3 | A (A represents a value of >0.3)
8 | Cc1ccc(-c2nnc(N[C@H]3COC(C)(C)C3)c3cnccc23)c(O)c1F (single isomer, unassigned) [Compound 12] | 820 nM | > 0.3 | 0.33 | 1.3 | A (A represents a value of >0.3)
9 | Cc1ccc(-c2nnc(N[C@H]3CCOCC3(C)C)c3cnccc23)c(O)c1 (single isomer, unassigned) [Compound 13] | 220 nM | > 0.3 | 0.6 | 0.77 | A (A represents a value of >0.3)
10 | Cc1ccc(-c2nnc(N[C@H]3CCOC(C)(C)C3)c3cnccc23)c(O)c1 (single isomer, unassigned) [Compound 14] | 510 nM | > 0.3 | 0.64 | 0.33 | A (A represents a value of >0.3)
11 | CC1(C)COCC[C@@H]1Nc1nnc(-c2ccc(C(F)(F)F)cc2O)c2ccncc12 (single isomer, unassigned) [Compound 15] | 1200 nM | > 0.3 | 0.83 | 2.2 | A (A represents a value of >0.3)
12 | CC1(C)C[C@@H](Nc2nnc(-c3ccc(C(F)F)cc3O)c3ccncc23)CCO1 (single isomer, unassigned) [Compound 16*] | 1800 nM | > 0.3 | 0.48 | 0.59 | A (A represents a value of >0.3)
13 | CC1(C)COCC[C@@H]1Nc1nnc(-c2ccc(C(F)F)cc2O)c2ccncc12 (single isomer, unassigned) [Compound 17] | 330 nM | > 0.3 | 0.69 | 1.9 | A (A represents a value of >0.3)
14 | C[C@H]1COCC[C@H]1Nc1nnc(-c2ccc(Cl)cc2O)c2ccncc12 (single isomer, unassigned) [Compound 18*] | 890 nM | > 0.3 | 0.68 | 0.47 | A (A represents a value of >0.3)
15 | C[C@@H]1COCC[C@H]1Nc1nnc(-c2ccc(Cl)cc2O)c2ccncc12 (single isomer, unassigned) [Compound 18A*] | 1100 nM | > 0.3 | 0.73 | 0.3 | A (A represents a value of >0.3)
16 | Oc1cc(C(F)(F)F)ccc1-c1nnc(N[C@H]2COC3(CC3)C2)c2cnccc12 (single isomer, unassigned) [Compound 19] | 1400 nM | > 0.3 | 1.4 | 0.81 | A (A represents a value of >0.3)
17 | CC1(C)CC[C@H](Nc2nnc(-c3ccc(C(F)F)cc3O)c3ccncc23)CO1 (single isomer, unassigned) [Compound 20] | 890 nM | > 0.3 | 0.61 | 0.46 | A (A represents a value of >0.3)
18 | CC1(C)OCC[C@H]1Nc1nnc(-c2ccc(C(F)(F)F)cc2O)c2ccncc12 (single isomer, unassigned) [Compound 22] | 960 nM | > 0.3 | 1.1 | 0.34 | A (A represents a value of >0.3)
19 | CC1(C)C[C@@H](Nc2nnc(-c3ccc(C(F)F)cc3O)c3ccncc23)CO1 (single isomer, unassigned) [Compound 23] | 120 nM | ≤ 0.3 | 0.24 | 0.33 | A (A represents a value of >0.3)
20 | C[C@@H]1C[C@H](Nc2nnc(-c3ccc(Cl)cc3O)c3ccncc23)CCO1 (single isomer, unassigned) [Compound 25A*] | 580 nM | > 0.3 | 1.1 | 0.1 | B (B represents a value of ≤0.3)
21 | C[C@H]1C[C@H](Nc2nnc(-c3ccc(Cl)cc3O)c3ccncc23)CCO1 (single isomer, unassigned) [Compound 25C*] | 1400 nM | > 0.3 | 0.65 | 0.099 | B (B represents a value of ≤0.3)
22 | C[C@@H]1C[C@@H](Nc2nnc(-c3ccc(Cl)cc3O)c3ccncc23)CCO1 (single isomer, unassigned) [Compound 25D*] | 1200 nM | > 0.3 | 1 | 0.2 | B (B represents a value of ≤0.3)
